Test results: patent US11135187B2, “Compositions and methods for treating diabetic retinopathy” (Augusta University Research Institute, Inc., priority 2017, dated 2021)

Legend:
[1] = tested on: albumin; assay: intravitreal Ang II-induced retinal albumin leakage in diabetic mice; type: in vivo; settings: for intravitreal Ang II-induced retinal albumin leakage in diabetic mice: 11,12-EET 15 μg/kg/day s.c., MS-PPOH 20 mg/kg/day i.p.
Procedure: (§1) One week after mice developed diabetes, diabetic and control mice were assigned to the following groups: Ang II (intravitreal injection with 5 μg/1 μL of Ang II); diabetes+Ang II; diabetes+Ang II+11,12-EET (15 μg/kg/day, s.c.; Alzet); diabetes+Ang II+MS-PPOH (CAS No. 206052-02-0-(N-methylsulfonyl-6-(2-propargyloxyphenyl)hexanamide, a selective EETs blocker; 20 mg/kg/day, i.p); and control. 11,12-EET was used because it potentiates intravitreal Ang II-induced retinal damage (FIGS. 4A-4C); also, MS-PPOH was used in a previous study (Huang, H., Exp Biol Med (Maywood), 231:1744-1752 (2006)).

[2] = tested on: GLUT-1; assay: GLUT-1 expression in HRECs under HG and hypoxia; type: cell-based, human; settings: HG (25 mM D-Glucose) + CO (CoCl2 hypoxia)
Procedure: (§2) The expression of albumin, ICAM-1, IL-6, GADPH, GLUT-1, and sEH was analyzed by homogenization of tissues or cells. Samples from mice in different treatments as well as human retinal endothelial cells (HRECs) were separated by electrophoresis for 3 h. The proteins were transferred to an enhanced chemiluminescence (ECL) membrane in a transfer buffer. The membranes were blocked for 90 min with 5% nonfat dry milk in Tris-buffered saline. The membranes were incubated with antibody against albumin (1:5000; Bethyl), ICAM-1 (1:2000; Cell Signaling), IL-6 (1:2000; Santa Cruz), GADPH (1:2000; abeam), GLUT-1 (1:10,000; abeam), or sEH (1:500; Santa. Cruz). The membranes were incubated with secondary antibody for albumin, ICAM-1, IL-6, GADPH, GLUT-1, or sEH. Chemiluminescent detection using ECL reagent from Millipore Corporation was done on X-ray film. In addition, quantification of the expression levels of these proteins was analyzed with NIH image J software.
Methods and Materials HRECs were subjected to L-glucose (osmotic control), L-Glu+hypoxia (CoCl2, 5 μM; CO), HG (25 mM of D-Glucose), or HG+CO.

[3] = tested on: albumin; assay: intravitreal hVEGF-induced retinal albumin leakage; type: in vivo; settings: 11,12-EET 15 μg/kg/day s.c. one week; sEH KO vs sEH (+/+) mice
Procedure: sEH (−/−) and sEH (+/+) mice were treated with 11, 12-EET (15 μg/kg/day, s.c.; Alzet) or a vehicle for one week, then injected with hVEGF.

[4] = tested on: albumin; assay: intravitreal Ang II-induced retinal albumin leakage; type: in vivo, mice; settings: for intravitreal Ang II-induced retinal albumin leakage: EET 15 μg/kg/day s.c., Ang II intravitreal on day 3, leakage significant only with 11,12-EET
Procedure: B6 Mice were injected mice with Ang II (1 or 5 μg per eye) or vehicle assayed for albumin leakage. The expression of albumin was used as the index of leakage assay. Mice were treated with 11, 12-EET (15 μg/kg/day, s.c.; Alzet: Cayman), 14,15-EET (15 μg/kg/day, s.c.; Alzet; Cayman), or vehicle. 11,12-EET and 14,15-EET were used because they are the major products of cytochrome P450 (CYP) epoxygenases. On day 3 after treatment, mice were intravitreally injected with Ang II (5 μg/μl).

[5] = blood glucose levels in diabetic mice; type: in vivo; settings: diabetic mice + Ang II; vs. 483±122 without treatment; not affected
Procedure: as §1

[6] = EUCLID trial, 530 participants, after two years of treatment; cited from earlier work
[7] = DIRECT trial, oral treatment; cited from earlier work
[8] = tested on: sEH; assay: Western blot of sEH protein in tissues of Ang II-infused mice; type: in vivo
Procedure: as §2, with “Eight-week-old male B6 mice were treated for 4 weeks with Ang II (3 mg/kg/day, s.c.; […]; Cayman), Ang II (Sigma), or vehicle. […]. The expression” for “The expression”
Male mice were treated for 4 weeks with Ang II (3 mg/kg/day, s.c.; Alzet)+telmisartan, a selective AT1 antagonist (2.5 mg/kg/day in drinking water; Cayman), Ang II, or vehicle.
as §2, with “abcam),” for “abeam),”, “Santa” for “Santa.”

[9] = tested on: albumin; assay: Western blot of total retinal albumin in Ang II-infused mice (retinal permeability); type: in vivo; settings: Ang II 3 mg/kg/day s.c., 4 weeks, vs vehicle
Procedure: The expression of albumin, ICAM-1 IL-6, GADPH, GLUT-1, and sEH was analyzed by homogenization of tissues or cells. Samples from mice in different treatments as well as human retinal endothelial cells (HRECs) were separated by electrophoresis for 3 h. The proteins were transferred to an enhanced chemiluminescence (ECL) membrane in a transfer buffer. The membranes were blocked for 90 min with 5% nonfat dry milk in Tris-buffered saline. The membranes were incubated with antibody against albumin (1:5000; Bethyl), ICAM-1 (1:2000; Cell Signaling), IL-6 (1:2000; Santa Cruz), GADPH (1:2000; abcam), GLUT-1 (1:10,000; abcam), or sEH (1:500; Santa Cruz). The membranes were incubated with secondary antibody for albumin, ICAM-1, IL-6, GADPH, GLUT-1, or sEH. Chemiluminescent detection using ECL reagent from Millipore Corporation was done on X-ray film. In addition, quantification of the expression levels of these proteins was analyzed with NIH image J software.

[10] = blood pressure in Ang II-induced hypertension; type: in vivo, mice; settings: Ang II 3 mg/kg/day s.c., 4 weeks, vs vehicle

CCCCC/C=C\C[C@H]1O[C@H]1C/C=C\C/C=C\CCCC(=O)O [11,12-EET]
intravitreal Ang II-induced retinal albumin leakage in diabetic mice [1]: increased | GLUT-1 expression in HRECs [2]: promoted GLUT-1 expression | effects of 11,12-EET on intravitreal hVEGF-induced retinal vascular leakage [3]: potentiated | intravitreal Ang II-induced retinal albumin leakage [4]: promoted | potency in potentiating intravitreal Ang II-induced retinal damage ([4]; comparison of the two EETs): more potent than 14,15-EET | blood glucose levels [5]: 528 ± 53 mg/dL

CCCCCC1OC1C/C=C\C/C=C\C/C=C\CCCC(=O)O (stereo not shown) [14,15-EET]
GLUT-1 expression in HRECs [2]: promoted GLUT-1 expression | intravitreal Ang II-induced retinal albumin leakage [4]: promoted

NCCCC[C@H](N[C@@H](CCc1ccccc1)C(=O)O)C(=O)N1CCC[C@H]1C(=O)O [Lisinopril]
reduction of progression of DR [6]: 50% | reduction of progression to proliferative DR [6]: 80%

C#CCOc1ccccc1CCCCCC(=O)NS(C)(=O)=O [MS-PPOH, N-methylsulfonyl-6-(2-propargyloxyphenyl)hexanamide]
intravitreal Ang II-induced retinal albumin leakage in diabetic mice [1]: decreased | blood glucose levels [5]: 502 ± 57 mg/dL

CCOc1nc2cccc(C(=O)O)c2n1Cc1ccc(-c2ccccc2-c2nnn[nH]2)cc1 [candesartan]
incidence of diabetic retinopathy [7]: decreased the incidence of diabetic retinopathy | progression of established diabetic retinopathy [7]: did not reduce the progression of established diabetic retinopathy

CCCc1nc2c(C)cc(-c3nc4ccccc4n3C)cc2n1Cc1ccc(-c2ccccc2C(=O)O)cc1 [telmisartan]
Ang II-induced sEH expression in the heart ([8]; heart, Ang II + telmisartan 2.5 mg/kg/day in drinking water, 4 weeks): attenuated | Ang II-induced sEH expression in the kidney ([8]; kidney, Ang II + telmisartan 2.5 mg/kg/day in drinking water, 4 weeks): attenuated | Ang II-induced retinal expression of sEH ([8]; retina, Ang II + telmisartan 2.5 mg/kg/day in drinking water, 4 weeks): reversed

Ang II: angiotensin II, produced from Ang I by angiotensin-converting enzyme (DRVYIHPF; Angiotensin-2; UniProt P01019 25-32, looked up)
albumin leakage (blood retinal barrier disruption) in diabetes ([1]; intravitreal Ang II 5 μg/1 μL, diabetic mice): significant increases in albumin leakage | retinal sEH protein levels, elevation vs vehicle group ([8]; retina, Ang II 3 mg/kg/day s.c., 4 weeks): 2 fold | retinal expression of sEH ([8]; retina, Ang II infusion 3 mg/kg/day s.c., 4 weeks (Example 4)): increased | total retinal albumin [9]: did not affect total retinal albumin | blood pressure [10]: became hypertensive
